PubChem BioAssay (NCI)
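Grown in 96-well plates, cells were treated for 48 hours with each compound at five concentrations. Insufficient inhibition: endpoint recorded as highest concentration tested. Abbreviation: GI50, concentration required for 50% inhibition of growth. TGI denotes the concentration required for complete inhibition of growth.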

Experiments:
Experiment in all cases: NCI anticancer screen, dose series, 48 h
786-0 renal = system: 786-0 renal
A498 renal = system: A498 renal
A549 NSCLC = system: A549 NSCLC
ACHN renal = system: ACHN renal
CAKI-1 renal = system: CAKI-1 renal
CCRF-CEM leukemia = system: CCRF-CEM leukemia
COLO 205 colon = system: COLO 205 colon
DMS 114 small cell lung = system: DMS 114 small cell lung
DMS 273 small cell lung = system: DMS 273 small cell lung
EKVX NSCLC = system: EKVX NSCLC
HCC-2998 colon = system: HCC-2998 colon
HCT-116 colon = system: HCT-116 colon
HCT-15 colon = system: HCT-15 colon
HOP-18 NSCLC = system: HOP-18 NSCLC
HT29 colon = system: HT29 colon
IGROV1 ovarian = system: IGROV1 ovarian
K-562 leukemia = system: K-562 leukemia
KM12 colon = system: KM12 colon
KM20L2 colon = system: KM20L2 colon
LOX IMVI melanoma = system: LOX IMVI melanoma
LXFL 529 NSCLC = system: LXFL 529 NSCLC
M14 melanoma = system: M14 melanoma
M19-MEL melanoma = system: M19-MEL melanoma
MALME-3M melanoma = system: MALME-3M melanoma
MOLT-4 leukemia = system: MOLT-4 leukemia
NCI-H226 lung = system: NCI-H226 lung
NCI-H23 lung = system: NCI-H23 lung
NCI-H460 lung = system: NCI-H460 lung
NCI-H522 lung = system: NCI-H522 lung
OVCAR-4 ovarian = system: OVCAR-4 ovarian
OVCAR-5 ovarian = system: OVCAR-5 ovarian
OVCAR-8 ovarian = system: OVCAR-8 ovarian
RPMI-8226 leukemia = system: RPMI-8226 leukemia
RXF 393 renal = system: RXF 393 renal
SF-268 CNS = system: SF-268 CNS
SF-295 CNS = system: SF-295 CNS
SF-539 CNS = system: SF-539 CNS
SK-MEL-2 melanoma = system: SK-MEL-2 melanoma
SK-MEL-28 melanoma = system: SK-MEL-28 melanoma
SK-MEL-5 melanoma = system: SK-MEL-5 melanoma
SK-OV-3 ovarian = system: SK-OV-3 ovarian
SN12C renal = system: SN12C renal
SNB-19 CNS = system: SNB-19 CNS
SNB-78 CNS = system: SNB-78 CNS
SR leukemia = system: SR leukemia
SW-620 colon = system: SW-620 colon
TK-10 renal = system: TK-10 renal
U251 CNS = system: U251 CNS
UACC-257 melanoma = system: UACC-257 melanoma
UACC-62 melanoma = system: UACC-62 melanoma
UO-31 renal = system: UO-31 renal
XF 498 CNS = system: XF 498 CNS
DLD-1 colon = system: DLD-1 colon
HL-60(TB) leukemia = system: HL-60(TB) leukemia
HOP-62 NSCLC = system: HOP-62 NSCLC
HOP-92 NSCLC = system: HOP-92 NSCLC
OVCAR-3 ovarian = system: OVCAR-3 ovarian
SNB-75 CNS = system: SNB-75 CNS

N/N=C(/Cc1nc2ccc(C(=O)c3ccccc3)cc2[nH]c1=O)C(=O)Nc1ccc([N+](=O)[O-])cc1[N+](=O)[O-]
TGI (786-0 renal): > 100 µM | GI50 (A498 renal): > 100 µM | TGI (A498 renal): > 100 µM | GI50 (A549 NSCLC): > 100 µM | TGI (A549 NSCLC): > 100 µM | GI50 (ACHN renal): > 100 µM | TGI (ACHN renal): > 100 µM | TGI (CAKI-1 renal): > 100 µM | GI50 (CCRF-CEM leukemia): > 100 µM | TGI (CCRF-CEM leukemia): > 100 µM | GI50 (COLO 205 colon): > 100 µM | TGI (COLO 205 colon): > 100 µM | GI50 (DMS 114 small cell lung): > 100 µM | TGI (DMS 114 small cell lung): > 100 µM | GI50 (DMS 273 small cell lung): > 100 µM | TGI (DMS 273 small cell lung): > 100 µM | TGI (EKVX NSCLC): > 100 µM | GI50 (HCC-2998 colon): > 100 µM | TGI (HCC-2998 colon): > 100 µM | GI50 (HCT-116 colon): > 100 µM | TGI (HCT-116 colon): > 100 µM | GI50 (HCT-15 colon): > 100 µM | TGI (HCT-15 colon): > 100 µM | TGI (HOP-18 NSCLC): > 100 µM | GI50 (HT29 colon): > 100 µM | TGI (HT29 colon): > 100 µM | GI50 (IGROV1 ovarian): > 100 µM | TGI (IGROV1 ovarian): > 100 µM | GI50 (K-562 leukemia): > 100 µM | TGI (K-562 leukemia): > 100 µM | TGI (KM12 colon): > 100 µM | TGI (KM20L2 colon): > 100 µM | GI50 (LOX IMVI melanoma): > 100 µM | TGI (LOX IMVI melanoma): > 100 µM | GI50 (LXFL 529 NSCLC): > 100 µM | TGI (LXFL 529 NSCLC): > 100 µM | GI50 (M14 melanoma): > 100 µM | TGI (M14 melanoma): > 100 µM | GI50 (M19-MEL melanoma): > 100 µM | TGI (M19-MEL melanoma): > 100 µM | TGI (MALME-3M melanoma): > 100 µM | GI50 (MOLT-4 leukemia): > 100 µM | TGI (MOLT-4 leukemia): > 100 µM | GI50 (NCI-H226 lung): > 100 µM | TGI (NCI-H226 lung): > 100 µM | GI50 (NCI-H23 lung): > 100 µM | TGI (NCI-H23 lung): > 100 µM | GI50 (NCI-H460 lung): > 100 µM | TGI (NCI-H460 lung): > 100 µM | GI50 (NCI-H522 lung): > 100 µM | TGI (NCI-H522 lung): > 100 µM | TGI (OVCAR-4 ovarian): 71.5 µM | GI50 (OVCAR-5 ovarian): > 100 µM | TGI (OVCAR-5 ovarian): > 100 µM | TGI (OVCAR-8 ovarian): > 100 µM | GI50 (RPMI-8226 leukemia): > 100 µM | TGI (RPMI-8226 leukemia): > 100 µM | TGI (RXF 393 renal): > 100 µM | GI50 (SF-268 CNS): > 100 µM | TGI (SF-268 CNS): > 100 µM | GI50 (SF-295 CNS): > 100 µM | TGI (SF-295 CNS): > 100 µM | TGI (SF-539 CNS): > 100 µM | GI50 (SK-MEL-2 melanoma): > 100 µM | TGI (SK-MEL-2 melanoma): > 100 µM | GI50 (SK-MEL-28 melanoma): > 100 µM | TGI (SK-MEL-28 melanoma): > 100 µM | TGI (SK-MEL-5 melanoma): > 100 µM | TGI (SK-OV-3 ovarian): > 100 µM | GI50 (SN12C renal): > 100 µM | TGI (SN12C renal): > 100 µM | TGI (SNB-19 CNS): > 100 µM | GI50 (SNB-78 CNS): > 100 µM | TGI (SNB-78 CNS): > 100 µM | GI50 (SR leukemia): > 100 µM | TGI (SR leukemia): > 100 µM | TGI (SW-620 colon): > 100 µM | TGI (TK-10 renal): > 100 µM | GI50 (U251 CNS): > 100 µM | TGI (U251 CNS): > 100 µM | TGI (UACC-257 melanoma): > 100 µM | TGI (UACC-62 melanoma): > 100 µM | TGI (UO-31 renal): > 100 µM | TGI (XF 498 CNS): > 100 µM

Cn1cc2ccccc2c1-c1nc(F)nc(Oc2ccc3c(c2)CC[C@@H]2C3CC[C@@]3(C)C2C[C@H](O)[C@@H]3O)n1 (stereo partly drawn)
TGI (786-0 renal): 31.3 µM | TGI (A498 renal): 47 µM | TGI (A549 NSCLC): 34.1 µM | TGI (ACHN renal): 47.6 µM | TGI (CAKI-1 renal): 34.8 µM | TGI (CCRF-CEM leukemia): 6.43 µM | TGI (COLO 205 colon): 32.4 µM | TGI (DLD-1 colon): 22.1 µM | TGI (DMS 114 small cell lung): 25 µM | TGI (DMS 273 small cell lung): 22 µM | TGI (EKVX NSCLC): 40.7 µM | TGI (HCC-2998 colon): 29.9 µM | TGI (HCT-116 colon): 28.1 µM | TGI (HCT-15 colon): 24.6 µM | TGI (HL-60(TB) leukemia): 43.7 µM | TGI (HOP-18 NSCLC): 54.8 µM | TGI (HOP-62 NSCLC): 18.7 µM | TGI (HOP-92 NSCLC): 55.5 µM | TGI (HT29 colon): 40.5 µM | TGI (IGROV1 ovarian): 45.4 µM | TGI (K-562 leukemia): 42.8 µM | TGI (KM12 colon): 36.1 µM | TGI (KM20L2 colon): 29.4 µM | TGI (LXFL 529 NSCLC): 27.4 µM | TGI (M14 melanoma): 32.2 µM | TGI (M19-MEL melanoma): 41.9 µM | TGI (MALME-3M melanoma): 75.4 µM | TGI (MOLT-4 leukemia): 26.1 µM | TGI (NCI-H23 lung): 42.9 µM | TGI (NCI-H460 lung): 83 µM | TGI (NCI-H522 lung): 27.2 µM | TGI (OVCAR-3 ovarian): 78.8 µM | TGI (OVCAR-5 ovarian): 39.2 µM | TGI (OVCAR-8 ovarian): 34.1 µM | TGI (RPMI-8226 leukemia): 41.9 µM | TGI (RXF 393 renal): 66.6 µM | TGI (SF-268 CNS): 36.8 µM | TGI (SF-295 CNS): 33.9 µM | TGI (SF-539 CNS): 28.9 µM | TGI (SK-MEL-2 melanoma): 38.1 µM | TGI (SK-MEL-28 melanoma): 38.9 µM | TGI (SK-MEL-5 melanoma): 36.8 µM | TGI (SK-OV-3 ovarian): 52.2 µM | TGI (SN12C renal): 31.6 µM | TGI (SNB-19 CNS): 29.5 µM | TGI (SNB-75 CNS): 41.1 µM | TGI (SNB-78 CNS): 54.2 µM | TGI (SW-620 colon): 15.8 µM | TGI (TK-10 renal): 54.6 µM | TGI (U251 CNS): 23.5 µM | TGI (UACC-257 melanoma): 81.6 µM | TGI (UACC-62 melanoma): 40.6 µM | TGI (UO-31 renal): 32.3 µM | TGI (XF 498 CNS): 60.3 µM
